Data taken from patent EP3831363A1 (Solis Herrera, Arturo, priority 2019, dated 2021).
Values after ≈ are worked out from the molar mass of the structure shown.

Key:
A549 cells = experiment: cells; conditions: Homo sapiens, A549, 96 h
Experimental: (§1) Further, a proliferation test was prepared for the same three cell lines: WI-38, A549 and HS 683. 3x10^4 WI-38 cells and 2x10^4 A549 and HS 683. Cells were seeded into each wells in 96-well culture plates in appropriate culture medium with 10% FBS (fetal bovine serum). […] After 96 hours incubation in 37°C/5%CO2 MTT assay was performed for establishing the cell viability.

HS-683 = experiment: cells; conditions: Homo sapiens, Hs 683, 96 h
Experimental: as §1

WI-38 cells = experiment: cells; conditions: Homo sapiens, WI-38, 96 h
Experimental: as §1

IFN-γ production = tested on: IFN-γ production
Experimental: (§2) After 24 hours of incubation in 37°C/5%CO2 samples of leukocytes and supernatants were collected.
(§3) Cytokine levels were determined using ELISA kits (BD Biosciences, USA) for human IFNγ, TNF-α and IL-6 and DuoSet for human IL-3 (R&D Systems, USA) according to the producers' instructions. The optical density was measured at 450 nm using a Multiskan RC spectrophotometric reader (Thermo Labsystems, USA), Cytokine concentrations were expressed in pg/ml.

IL-6 production = tested on: IL-6 production
Experimental: as §2, §3

TNF-α production = tested on: TNF-α production
Experimental: as §2, §3

human PBLs = conditions: human leukocytes, 48 hours, MTT
Experimental: (§4) Thereby, cell viability was determined on the basis of the mitochondria-dependent reduction of MTT (3-[4,5-dimethyltiazol 2yl]-2,5-diphenyltetrazolium bromide) to formazan. […] Next cells were treated with 20 µl of MTT. After 3 hours of incubation at 37°C, the formazan blue formed in the cells was dissolved in 100 µl of SDS (sodium dodecylsulfate) for 3 hours in 37°C. The optical density was measured at 570 nm.
(§5) After the cytotoxicity tests LC50 (LCso-lethal concentration, 50%-dose required to kill half of the cells after a specified test duration) were estimated for each cell lines and PBLs (leukocytes of peripheral blood). Additionally for PBLs LC10 and LC5 were calculated.

H1N1 virus = conditions: H1N1 infected chicken, 0,002 mg/kg each 24 hours, 24 hours after treatment, versus control group
[1] = rats given 4,5 mg/kg of mercury (HgHCI); treatment of 0,0937 mg/ml; without treatment 6 in 8 rats died
[2] = in vivo
Description: Thereby the healing process of a human ulcer is examined as a basic condition.

in vitro = conditions: human, peripheral blood leukocytes
Experimental: as §4, §5

[3] = read-out: concentration that inhibits 50% of the proliferation

## CN1CCC[C@H]1c1cccnc1
A549 cells; [3]
  IC50: 2000 µg/mL (≈ 12.3 mM)
A549 cells; read-out: concentration that inhibits 99% of the proliferation
  IC99: 5500 µg/mL
HS-683; read-out: concentration at which 99% of proliferation are inhibited
  IC99: 5500 µg/mL
HS-683; [3]
  IC50: 2900 µg/mL (≈ 17.9 mM)
WI-38 cells; [3]
  IC50: 1000 µg/mL (≈ 6.16 mM)
WI-38 cells; read-out: concentration that inhibits a proliferation of 99%
  IC99: 4500 µg/mL
IFN-γ production
  effect on IFN-γ production: strongly decreases the level of interferon in a dose-dependent manner
IL-6 production
  effect on IL-6 production: no effect
TNF-α production
  effect on TNF-α production: increases the level of cytokines in a dose-dependent manner
Human PBLs
  LC5: 0,5 mg/ml
  LC10: 1000 µg/mL (≈ 6.16 mM)
H1N1 virus
  egg production: began to lay off eggs
[1]
  mortality: 0,625 of 8 rats
[2]
  healing effect on ulcer: increased healing effect
In vitro
  CC50 at 48 h: 7000 µg/mL (≈ 43.1 mM)
